Results on 2 compounds are retold here after ChEMBL document CHEMBL1671724, “IncI1 plasmid carrying extended-spectrum-beta-lactamase gene blaCTX-M-1 in Salmonella enterica isolates from poultry and humans in France, 2003 to 2008” (2010).

The structures appear in SMILES notation. ≈ marks a conversion by molar mass, not a printed value.

Experiment [1] in a line: Antimicrobial activity against Salmonella Newport 03-8748 by Etest. Type of experiment: functional, Salmonella enterica subsp. enterica serovar Newport. The settings on record: Salmonella enterica.
Experiment [2] concerns Escherichia coli. Nature of the experiment: Antimicrobial activity against Escherichia coli 03-8748TC1 transconjugant expressing IncI1 plasmid-encoded beta lactamase CTX-M-1 by Etest. Type of experiment: functional.
Experiment [3] relates to Salmonella typhimurium. Nature of the experiment: Antimicrobial activity against Salmonella Typhimurium 05-9280 by Etest. Type of experiment: functional, Salmonella enterica subsp. enterica serovar Typhimurium. The settings on record: Salmonella enterica.
In experiment [4] the test system is Escherichia coli. Nature of the experiment: Antimicrobial activity against Escherichia coli 05-9280TC1 transconjugant expressing IncI1 plasmid-encoded beta lactamase CTX-M-1 by Etest. Type of experiment: functional.
A further experiment concerns Salmonella. Nature of the experiment: Antimicrobial activity against Salmonella Llandoff 06CEB6542SAL by Etest. Type of experiment: functional.
The subject of experiment [5] is Escherichia coli. Nature of the experiment: Antimicrobial activity against Escherichia coli 06CEB6542SALTC1 transconjugant expressing IncI1 plasmid-encoded beta lactamase CTX-M-1 by Etest. Type of experiment: functional.
Experiment [6] relates to Salmonella typhimurium. Nature of the experiment: Antimicrobial activity against Salmonella Typhimurium 06-6550 by Etest. Type of experiment: functional, Salmonella enterica subsp. enterica serovar Typhimurium. The settings on record: Salmonella enterica.
Experiment [7] relates to Escherichia coli. The experiment in a line: Antimicrobial activity against Escherichia coli 06-6550TC1 transconjugant expressing IncI1 plasmid-encoded beta lactamase CTX-M-1 by Etest. Type of experiment: functional.
Experiment [8] in a line: Antimicrobial activity against Salmonella London 07-819 by Etest. Type of experiment: functional, Salmonella enterica subsp. enterica serovar London. The settings on record: Salmonella enterica.
The test system of experiment [9] is Escherichia coli. Nature of the experiment: Antimicrobial activity against Escherichia coli 07-819TC1 transconjugant expressing IncI1 plasmid-encoded beta lactamase CTX-M-1 by Etest. Type of experiment: functional.
The test system of experiment [10] is Salmonella typhimurium. Nature of the experiment: Antimicrobial activity against Salmonella Typhimurium 08-843 by Etest. Type of experiment: functional, Salmonella enterica subsp. enterica serovar Typhimurium. As to conditions: Salmonella enterica.
The subject of experiment [11] is Escherichia coli. Nature of the experiment: Antimicrobial activity against Escherichia coli 08-843TC1 transconjugant expressing IncI1 plasmid-encoded beta lactamase CTX-M-1 by Etest. Type of experiment: functional.
The test system of experiment [12] is Salmonella typhimurium. The experiment in a line: Antimicrobial activity against Salmonella Typhimurium 08-1537 by Etest. Type of experiment: functional, Salmonella enterica subsp. enterica serovar Typhimurium. As to conditions: Salmonella enterica.
Experiment [13] deals with Escherichia coli. Nature of the experiment: Antimicrobial activity against Escherichia coli 08-1537TC1 transconjugant expressing IncI1 plasmid-encoded beta lactamase CTX-M-1 by Etest.
Experiment [14] relates to Salmonella typhimurium. Nature of the experiment: Antimicrobial activity against Salmonella Typhimurium 08-1745 by Etest. Type of experiment: functional, Salmonella enterica subsp. enterica serovar Typhimurium. The settings on record: Salmonella enterica.
Experiment [15] has as its system Salmonella typhimurium. The experiment in a line: Antimicrobial activity against Salmonella Typhimurium 08-2211 by Etest. Type of experiment: functional, Salmonella enterica subsp. enterica serovar Typhimurium. The settings on record: Salmonella enterica.
Experiment [16] can be described thus: Antimicrobial activity against Salmonella 4,5,12:i:- 08-2712 by Etest. Type of experiment: functional, Salmonella enterica subsp. enterica serovar 4,[5],12:i:-. The settings on record: Salmonella enterica.
Experiment [17] has as its system Escherichia coli. The experiment in a line: Antimicrobial activity against Escherichia coli 08-2712TC1 transconjugant expressing IncI1 plasmid-encoded beta lactamase CTX-M-1 by Etest.

For the compound `CC(C)(O/N=C(\C(=O)N[C@@H]1C(=O)N2C(C(=O)[O-])=C(C[n+]3ccccc3)CS[C@H]12)c1csc(N)n1)C(=O)O` [CEFTAZIDIME], the MIC in experiment [1] is > 256 µg/mL; in the experiment on Escherichia coli [2] it was 256 µg/mL (≈ 468 µM); with Salmonella typhimurium [3] it was > 256 µg/mL; in the experiment with Escherichia coli [4] it was > 256 µg/mL; against Salmonella it was 64 µg/mL (≈ 117 µM); in the experiment with Escherichia coli [5] it was 8 µg/mL. Moreover, the MIC in the experiment with Salmonella typhimurium [6] was 256 µg/mL (≈ 468 µM); against Escherichia coli [7] it was 64 µg/mL (≈ 117 µM); in experiment [8], > 256 µg/mL; in the experiment on Escherichia coli [9], 256 µg/mL (≈ 468 µM); against Salmonella typhimurium [10], 256 µg/mL (≈ 468 µM); against Escherichia coli [11], 256 µg/mL (≈ 468 µM). Moreover, the MIC with Salmonella typhimurium [12] is > 256 µg/mL; against Escherichia coli [13] it was 128 µg/mL (≈ 234 µM); in the experiment with Salmonella typhimurium [14], > 256 µg/mL; in the experiment with Salmonella typhimurium [15], 256 µg/mL (≈ 468 µM); in [16], 256 µg/mL (≈ 468 µM); against Escherichia coli [17], 64 µg/mL (≈ 117 µM).
`CO/N=C(\C(=O)N[C@@H]1C(=O)N2C(C(=O)O)=C(CSc3nc(=O)c(O)nn3C)CS[C@H]12)c1csc(N)n1` [CEFTRIAXONE]: the MIC was found to be 8 µg/mL (≈ 14.4 µM) in [1]; 2 µg/mL (≈ 3.61 µM) against Escherichia coli [2]; 32 µg/mL (≈ 57.7 µM) against Salmonella typhimurium [3]; 32 µg/mL (≈ 57.7 µM) in the experiment on Escherichia coli [4]; 4 µg/mL (≈ 7.21 µM) in the experiment on Salmonella; 0.5 µg/mL in the experiment with Escherichia coli [5]. In addition, the MIC against Salmonella typhimurium [6] turned out to be 16 µg/mL (≈ 28.9 µM); with Escherichia coli [7] it was 4 µg/mL (≈ 7.21 µM); in [8], 8 µg/mL (≈ 14.4 µM); against Escherichia coli [9] it was 4 µg/mL (≈ 7.21 µM); in the experiment on Salmonella typhimurium [10] it was 16 µg/mL (≈ 28.9 µM); in the experiment on Escherichia coli [11], 8 µg/mL (≈ 14.4 µM). The MIC against Salmonella typhimurium [12] is 64 µg/mL (≈ 115 µM); against Escherichia coli [13], 8 µg/mL (≈ 14.4 µM); with Salmonella typhimurium [14] it was 16 µg/mL (≈ 28.9 µM); in the experiment on Salmonella typhimurium [15], 8 µg/mL (≈ 14.4 µM); in experiment [16] it was 16 µg/mL (≈ 28.9 µM); in the experiment with Escherichia coli [17], 8 µg/mL (≈ 14.4 µM).
